Measured values: patent publication US20130121921A1, “Rodent Therapeutic Model And Methods” (The Christus Stehlin Foundation For Cancer Research, priority 2011, published 2013)

Experiments:
[1] = system: humanized NSG mice; test: toxicity of CPT given by gavage to humanized and non-humanized NSG mice (weight, blood cell counts); format: in vivo, mouse
Protocol: Once maximum engraftment is reached as measured in Example 1 or 2, initial validation experiments are performed. A reasonable number of doubly humanized mice are obtained within approximately 5 to 6 months from the start of the humanizing process, i.e., 10-12 NSG mice with a >80% human BM and a >60% HSA in their blood. […] Camptothecin (CPT) is administered by gavage to humanized and non-humanized mice. At normal pH, CPT exists in equilibrium between two states: lactone and carboxylate. In the mouse, equilibrium is around 50% for each isoform. However, in human blood, due to an affinity for human serum albumin (HSA), the equilibrium moves towards the carboxylate form, leaving only 3%-5% total CPT in the active lactone form, see Giovanella et al., Annals New York Academy of Sciences 922: 27-35, 2000. The double humanized mouse can act akin to a human in this respect. Higher and higher doses of CPT are administered starting with a dose of 0.5 mg/kg orally by gavage given daily for 5 days followed by 2 days of rest for 3 weeks. Animals are weighed twice a week and their weight recorded. Blood is taken twice a week and blood cells counted. If no toxicity is found, the dose is raised by 50% and the procedure repeated until toxicity is obtained.

[2] = target: human serum albumin (HSA) (Homo sapiens, UniProt P02768); conditions: human blood, equilibrium moved towards carboxylate by affinity for HSA; cited from earlier work
Sequence of human serum albumin (HSA) (P02768 25-609): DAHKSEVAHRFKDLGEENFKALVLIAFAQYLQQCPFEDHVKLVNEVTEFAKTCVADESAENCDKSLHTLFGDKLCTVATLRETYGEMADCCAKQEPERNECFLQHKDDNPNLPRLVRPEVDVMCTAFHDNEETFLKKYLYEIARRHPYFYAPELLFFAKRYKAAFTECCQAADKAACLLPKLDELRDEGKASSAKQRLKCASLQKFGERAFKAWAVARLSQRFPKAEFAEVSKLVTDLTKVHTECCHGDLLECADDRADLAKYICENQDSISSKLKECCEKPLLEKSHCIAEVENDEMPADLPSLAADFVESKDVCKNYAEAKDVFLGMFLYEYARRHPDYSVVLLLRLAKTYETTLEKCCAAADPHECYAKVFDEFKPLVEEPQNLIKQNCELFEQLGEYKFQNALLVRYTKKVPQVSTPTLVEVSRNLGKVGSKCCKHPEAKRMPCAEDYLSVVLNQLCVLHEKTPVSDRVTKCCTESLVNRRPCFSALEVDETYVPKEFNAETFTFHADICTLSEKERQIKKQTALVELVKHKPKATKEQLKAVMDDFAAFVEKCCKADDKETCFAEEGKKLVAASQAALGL

[3] = in the mouse, normal pH; cited from earlier work
[4] = system: human tumors; test: xenograft test repeated in mice with higher percentage of human bone marrow and hepatocytes; format: in vivo, mouse; conditions: less humanized vs more humanized group
Protocol: The procedures in any one or combination of Examples 1-4 are performed with mice having a higher percentage of human bone marrow and hepatocytes. Rather than having a non-human control, the control can be instead, or in addition, mice having the percentage of human bone marrow (and/or human cord blood) used in the experimental group in the first performance of the procedures. Double humanized mice are further supplemented with human or humanized intestinal enzymes to form a triply humanized mouse (bone marrow, liver, and intestinal enzymes), which is then be used as a predictor of human response to anticancer agents. A mouse having humanized intestinal enzymes can be constructed, for example, as described in van Herwaarden et al., J. Clin. Invest., 117 (11):3583-3592, 2007. […] A human dose for CPT can be redetermined and suitability of the drug for treatment of humans can be redetermined.

[5] = system: human tumors; test: human tumors xenotransplanted subcutaneously in humanized and non-humanized NSG mice, treated at MTD of CPT; format: in vivo, mouse; conditions: non-humanized vs humanized group, each at its own MTD
Protocol: Once a maximum tolerated dose (MTD) for humanized NSG mice and MTD for non-humanized ones is obtained using the procedure described in Example 3, final validation experiments are performed. Six human tumors are xenotransplanted subcutaneously on the dorsal flank in humanized and non-humanized NSG mice. Once the tumors become palpable, the animals are treated with the MTD dose of CPT of their group, i.e., the humanized mice with the humanized MTD and the non-humanized mice with their MTD. The tumors are measured with calipers twice a week and the results recorded. […] A human dose for CPT can be determined and suitability of the drug for treatment of humans can be determined. The experiments can be performed substituting one or more drugs in place of CPT. The experiments can be performed using one or more drugs in addition to CPT. The experiments can be performed by using introduction of human leukemia cancer cells or other non-solid tumor human cancer cells into the rodent instead of xenotransplantation of solid tumors. Such cancers can be evaluated based on alternative metrics such as cell count.

SMILES: CC[C@@]1(O)C(=O)OCc2c1cc1n(c2=O)Cc2cc3ccccc3nc2-1 [CPT, Camptothecin]
- sensitivity of human bone marrow cells present in the mouse ([1]; human bone marrow cells vs mouse cells): more sensitive to camptothecin than mouse cells
- hematological toxicity of CPT ([1]; humanized NSG mice, relation to percentage of human bone marrow): directly proportional to the percentage of human bone marrow
- toxicity of CPT for humanized mice ([1]; oral gavage from 0.5 mg/kg daily x5, 2 days rest, 3 weeks, dose raised by 50%, humanized vs non-humanized mice): Higher toxicity
- total CPT in the active lactone form [2]: 3%-5%
- equilibrium share of each isoform (lactone and carboxylate) [3]: around 50%
- anticancer activity (relative size of the tumors) [4]: higher anticancer activity of CPT in the less humanized group
- anticancer activity (relative size of the tumors) [5]: much higher anticancer activity of CPT in the non-humanized group
